The source of these data is patent US20250099485A1, “COMPOSITIONS FOR PROMOTING HAIR GROWTH” (ESTETRA SRL, priority 2021, published 2025).

The subject of one test is human monocytes. Nature of the test: Immune cell polarization (qPCR NOS2/ARG1), human monocytes. In kind it is cell-based. To be noted: activated human monocytes, qPCR marker. The procedure:
Immune cell polarization was evaluated in vitro using markers for M1/TH-1 (NOS2) and M2/TH-2 (ARG1) phenotype with human monocytes and mouse monocytes (BMDM bone marrow derived monocytes).
Human blood was collected under national ethical approval with full informed written patient consent. Freshly isolated human blood was collected in EDTA vacutainer tubes, diluted 1:1 in PBS and gently layered onto histopaque (Merck). Tubes were immediately centrifuged at 100×g for 30 minutes and the whitish buffy layer formed at the histopaque interface aspirated and washed (centrifuged 100×g, 10 minutes) twice with sterile PBS. Untouched classical (CD14++, CD16−) monocytes were isolated from the washed buffy layer cells using the Miltenyi Classical Monocyte Isolation Kit, LS columns and a MidiMACs separator (Miltenyi). Isolated cells were seeded into tissue culture plates and stimulated to differentiate using PMA.
An experiment was conducted to evaluate the anti-inflammatory effects of E4 or vehicle (negative control). qPCR methodology was used to assess the effects of E2 and E4 on immune cell polarization using well validated marker of pro-inflammatory (NOS2 for MI/TH-1 phenotype) and anti-inflammatory (ARG1 for ME/TH-2 phenotype) activity.
Background: Real-time PCR tracks product formation cycle by cycle.

In another test the test system is human dermal fibroblasts. Nature of the test: Wound healing gene expression RT-qPCR array, fibroblasts. In kind it is cell-based. The settings on record: 10^−7M, 15 h, relative to ethanol control. From the text:
The healing properties of E4 were investigated at the transcriptional level by studying gene expression changes by RT-qPCR. 84 genes qPCR arrays focusing on the wound healing process were used. These arrays contain genes important for the three phases of wound healing process, including extra-cellular matrix (ECM) remodeling factors, inflammatory cytokines and chemokines as well as growth factors and major signaling molecules. The changes in gene expression were interpreted in a dermo cosmetic context in order to highlight the potential benefits of the E4 towards wound healing.
After 24 h seeded on 25 cm^2 culture flasks (T25), cells were treated with E4 during 15 h. The culture conditions were the same as the one used for the scratch test (see Example 2) and cells were treated with E4 in absence of FBS/HKGS. The cell density used for gene expression assay was lower than the ones used for the scratch tests: 15 800 cells/cm^2 for gene expression assay vs 113 636 cell/cm^2 for keratinocytes and 100 000 cells/cm^2 for fibroblasts in culture inserts for wound closure assay.
At the end of the 15 h treatment with E4 10^−7M or ethanol 0.1% used as control, total RNAs were extracted using the Qiagen RNeasy kit (Qiagen). Cells were rinsed with cold PBS and lysed in the ad hoc buffer provided in the kit. Extraction was performed according to the supplier's recommendations. The collected RNAs were stored at −80° C.
The RNA concentration was determined by spectrophotometric measurement (QIAxpert, Qiagen) and the RNA quality was analyzed by capillarity electrophoresis (Agilent Bioanalyzer 2100—Agilent RNA 6000 Nano Kit).
Reverse transcription was performed with kit “RT2 First Strand Kit” (Qiagen) from total RNA according to the manufacturer's instructions.
The qPCR method was used to quantify the expression changes of specific markers in the cDNA populations. The arrays “RT2 Profiler PCR Array human wound healing” containing specific primers for 84 target genes.
The amplification of target genes was performed following the supplier's recommendations thanks to a “HotStart Taq DNA Polymerase” and to the use of SYBR Green as detection method. The SYBR Green is a marker emitting fluorescence once inserted between the paired bases of nucleic acids. The fluorescence intensity is thus directly proportional to the quantity of produced amplicons.
The qPCRs were run using the Quantstudio7 Real-Time PCR System (Applied Biosystems) and its software (QuantStudio real time PCR Software v1.3. software, Applied Biosystems).
The data obtained for E4 treated conditions were compared to the ethanol control in both cell types. The threshold cycles (Ct) values were normalized to the mean of Ct of several housekeeping genes present on the array (indicated in the table below). The maximum Ct cut-off value was fixed at 36 cycles meaning that Ct values above 36 were not considered in the analysis.

Test [1] concerns hair matrix keratinocytes. Description: Hair follicle organ culture: hair matrix keratinocytes proliferation and apoptosis (Ki-67/TUNEL). The class given is cell-based, human. The settings on record: vs vehicle. The procedure:
(§1) 12-44 full-length frontotemporal hair follicles (HF) were obtained from four human female donors >50 years old. Donors were caucasian female subjects […], respectively (Donor 1: 12 temporal anagen HFs; Donor 2: 29; Donor 3: 44; Donor 4: 32). After microdissection from skin as described (Edelkamp et al., Methods Mol Biol, 2020, 2154:105-119; and Langan et al., Exp Dermatol, 2015, December; 24(12):903-1), HFs were placed in adequate culture medium and allowed a 24 h rest period to allow them to recover from the trauma of microdissection. Test substance (either vehicle (0.3% EtOH) or E4 at concentrations of 30 μM, 3 μM or 300 nM) was added to the medium at the end of the 24 h. Total culturing time was 5-7 days depending on the studied parameters and the experimental question. The experimental design for the hair follicle organ culture experiment is depicted in FIG. 12. Longer term culture experiments may be used to analyze the capacity to delay the onset of catagen.
Germinative hair matrix keratinocytes proliferate mostly during anagen. […] Apoptosis of hair matrix keratinocytes is used as an additional indicator of anagen/catagen transition.
Proliferation was assessed by quantification of the percentage of hair matrix keratinocytes in a clearly specified area (germinative hair matrix keratinocytes, below the Auber's line) that were positive for the proliferation marker Ki67 (or another proliferation marker such as BrdU or EdU), whereas apoptosis was assessed using TUNEL (TdT-mediated dUTP-biotin nick-end labelling) immunofluorescence (or another apoptosis marker such as activated caspase-3) in the same keratinocyte population (below the Auber's line) and in the precortical hair matrix keratincoytes (above the Auber's line) (Langan et al., Exp Dermatol 2015) (FIG. 13).

The subject of test [2] is human hair follicles (HF). Nature of the test: Hair follicle organ culture: hair shaft elongation ex vivo. The class given is cell-based. To be noted: 300 nM, 3 μM, 30 μM, n=4 female donors. The procedure:
as §1, with “Longer term culture experiments may be used to analyze the capacity to delay the onset of catagen.” left out
To determine the HF length, each HF was measured from the end of the bulb connective tissue sheath to the end of the distal outer root sheath (ORS), using a digital light microscope at 50× magnification (VHX 900 Keyence Corporation, Osaka, Japan) and the affiliated software (Edelkamp et al., Methods Mol Biol, 2020, 2154:105-119; and Langan et al., Exp Dermatol, 2015, December; 24(12):903-1). […] Elongation is expressed as millimeters of growth and/or as percentage elongation from the baseline measurement.

For the compound `C[C@]12CC[C@@H]3c4ccc(O)cc4CC[C@H]3[C@@H]1[C@@H](O)[C@@H](O)[C@@H]2O` [E4, 1,3,5 (10)-estratrien-3,15alpha,16alpha,17beta-tetrol], in the test with human monocytes, the “immune cell polarization, human monocytes” value is listed as “switch from subtype M1 (pro-inflammatory) to subtype M2 (healing)”. In addition, in the test on human dermal fibroblasts, the “COL1A2 (Collagen alpha-2(I) chain) expression, FC” value was 0.9445 Fold Change (FC); the “CTGF (CCN family member 2) expression, FC” value is on record as 0.7643 Fold Change (FC); the “MAPK1 (Mitogen-activated protein kinase 1) expression, FC” value is reported as 0.9284 Fold Change (FC); the “MMP7 (Matrix metalloproteinase-7; Matrilysin) expression, FC” value is 1.1451 Fold Change (FC). In the test on human dermal fibroblasts, the “SERPINE1 (Plasminogen activator inhibitor 1) expression, FC” value is on record as 0.8516 Fold Change (FC); the “VTN (Vitronectin) expression, FC” value is given as 0.7652 Fold Change (FC); the “WNT5A (Protein Wnt-5a) expression, FC” value is 0.8930 Fold Change (FC). Further, in test [1] (300 nM, 3 μM, 30 μM), the “hair matrix keratinocytes apoptosis (TUNEL)” value was “without affecting”. Moreover, the “increased hair matrix keratinocytes proliferation (Ki-67)” value in test [1] (300 nM) is on record as “tendentially”. In addition, the “increased hair matrix keratinocytes proliferation (Ki-67)” value in test [1] (3 μM) is “significantly”. For the same compound, the “increased hair matrix keratinocytes proliferation (Ki-67)” value in test [1] (30 μM) is on record as “tendentially”. Moreover, the hair shaft production entry in test [2] is “did not modify”.
